Test results taken from the NIST ThermoML archive (doi:10.1021/je900284z).
“And” between values parts separate entries of the source, which are not always exact repeats. Identical values can stand only once. Numbers after ± are expanded uncertainties.

Conditions: Liquid; for viscosity: Falling or rolling sphere viscometry; for mass density: 101.33 kPa

CCCCC(CC)COC(=O)c1ccccc1 (stereo not drawn) [2-ethylhexyl benzoate]
Conditions	viscosity
263.15 K, 100 kPa	29.42 ± 0.65 mPa·s and 29.39 ± 0.65 mPa·s
268.15 K, 100 kPa	21.45 ± 0.48 mPa·s and 21.43 ± 0.48 mPa·s
273.15 K, 100 kPa	16.21 ± 0.36 mPa·s and 16.22 ± 0.36 mPa·s
273.15 K, 700 kPa	16.39 ± 0.36 mPa·s
273.15 K, 14200 kPa	20.88 ± 0.46 mPa·s
273.15 K, 16100 kPa	22.11 ± 0.49 mPa·s
273.15 K, 29700 kPa	28.8 ± 0.64 mPa·s
273.15 K, 45500 kPa	38.79 ± 0.86 mPa·s
273.15 K, 47100 kPa	39.5 ± 0.88 mPa·s
273.15 K, 60900 kPa	51.94 ± 1.1 mPa·s
273.15 K, 81800 kPa	78.37 ± 2 mPa·s
273.15 K, 102000 kPa	114.7 ± 3.8 mPa·s
273.15 K, 110600 kPa	132.5 ± 4.9 mPa·s
273.15 K, 149800 kPa	286.9 ± 17 mPa·s
283.15 K, 100 kPa	10.07 ± 0.22 mPa·s
293.15 K, 100 kPa	6.753 ± 0.15 mPa·s and 6.756 ± 0.15 mPa·s
298.15 K, 100 kPa	5.574 ± 0.12 mPa·s and 5.529 ± 0.12 mPa·s
298.15 K, 300 kPa	5.708 ± 0.13 mPa·s
298.15 K, 900 kPa	5.771 ± 0.13 mPa·s
298.15 K, 26000 kPa	8.4 ± 0.19 mPa·s
298.15 K, 50900 kPa	12.07 ± 0.27 mPa·s
298.15 K, 75600 kPa	17.19 ± 0.38 mPa·s
298.15 K, 100800 kPa	24.58 ± 0.55 mPa·s
298.15 K, 125500 kPa	34.9 ± 0.78 mPa·s
298.15 K, 150900 kPa	49.92 ± 1.1 mPa·s
298.15 K, 175100 kPa	70.34 ± 1.7 mPa·s
298.15 K, 200700 kPa	101 ± 3.1 mPa·s
298.15 K, 225200 kPa	143.1 ± 5.5 mPa·s
298.15 K, 250700 kPa	206 ± 10 mPa·s
303.15 K, 100 kPa	4.847 ± 0.11 mPa·s
313.15 K, 100 kPa	3.641 ± 0.081 mPa·s and 3.644 ± 0.081 mPa·s and 3.646 ± 0.081 mPa·s
323.15 K, 100 kPa	2.859 ± 0.063 mPa·s and 2.857 ± 0.063 mPa·s
323.15 K, 25900 kPa	3.952 ± 0.088 mPa·s
323.15 K, 50900 kPa	5.32 ± 0.12 mPa·s
323.15 K, 75800 kPa	7.088 ± 0.16 mPa·s
323.15 K, 100600 kPa	9.368 ± 0.21 mPa·s
323.15 K, 125700 kPa	12.33 ± 0.27 mPa·s
323.15 K, 150400 kPa	16.17 ± 0.36 mPa·s
323.15 K, 174800 kPa	20.75 ± 0.46 mPa·s
323.15 K, 175600 kPa	21.33 ± 0.47 mPa·s
323.15 K, 200800 kPa	28.03 ± 0.62 mPa·s
323.15 K, 225600 kPa	36.82 ± 0.82 mPa·s
323.15 K, 250400 kPa	48.19 ± 1.1 mPa·s
323.15 K, 275200 kPa	62.86 ± 1.4 mPa·s
323.15 K, 300000 kPa	82.18 ± 2.1 mPa·s
323.15 K, 300100 kPa	82.04 ± 2.1 mPa·s
333.15 K, 100 kPa	2.3 ± 0.051 mPa·s
343.15 K, 100 kPa	1.834 ± 0.041 mPa·s [middle of 5 runs]
348.15 K, 100 kPa	1.728 ± 0.038 mPa·s and 1.73 ± 0.038 mPa·s
348.15 K, 10800 kPa	1.956 ± 0.043 mPa·s
348.15 K, 25400 kPa	2.3 ± 0.051 mPa·s
348.15 K, 50800 kPa	2.994 ± 0.066 mPa·s
348.15 K, 75900 kPa	3.826 ± 0.085 mPa·s
348.15 K, 100800 kPa	4.842 ± 0.11 mPa·s
348.15 K, 125700 kPa	6.009 ± 0.13 mPa·s
348.15 K, 150700 kPa	7.634 ± 0.17 mPa·s
348.15 K, 175700 kPa	9.511 ± 0.21 mPa·s
348.15 K, 200700 kPa	11.85 ± 0.26 mPa·s
348.15 K, 225700 kPa	14.77 ± 0.33 mPa·s
348.15 K, 250500 kPa	18.23 ± 0.4 mPa·s
348.15 K, 275300 kPa	22.56 ± 0.5 mPa·s
348.15 K, 276300 kPa	22.83 ± 0.51 mPa·s
348.15 K, 302300 kPa	28.48 ± 0.63 mPa·s
348.15 K, 315200 kPa	31.58 ± 0.7 mPa·s

Conditions	mass density [kg/m3]
273.15 K	981.12 ± 0.34
278.15 K	977.18 ± 0.35
283.15 K	973.25 ± 0.35
288.15 K	969.32 ± 0.36
293.15 K	965.4 ± 0.36
298.15 K	961.49 ± 0.37
303.15 K	957.57 ± 0.37
313.15 K	949.73 ± 0.38
323.15 K	941.92 ± 0.39
333.15 K	934.11 ± 0.4
343.15 K	926.28 ± 0.41
353.15 K	918.45 ± 0.42
363.15 K	910.61 ± 0.43

CCCCC(CC)COC(=O)c1ccccc1C(=O)OCC(CC)CCCC (stereo not drawn) [bis(2-ethylhexyl) 1,2-benzenedicarboxylate]
Conditions	viscosity
273.15 K, 100 kPa	359.9 ± 24 mPa·s and 359.7 ± 24 mPa·s
273.15 K, 24100 kPa	680.7 ± 60 mPa·s
283.15 K, 100 kPa	158 ± 6.5 mPa·s and 158.6 ± 6.5 mPa·s
283.15 K, 400 kPa	160.2 ± 6.6 mPa·s
283.15 K, 20800 kPa	266.5 ± 15 mPa·s
283.15 K, 41000 kPa	430.5 ± 31 mPa·s
283.15 K, 60000 kPa	663.5 ± 58 mPa·s
283.15 K, 80400 kPa	1034 ± 110 mPa·s
283.15 K, 100100 kPa	1566 ± 180 mPa·s
283.15 K, 123400 kPa	2473 ± 330 mPa·s
298.15 K, 100 kPa	58.79 ± 1.2 mPa·s and 57.58 ± 1.2 mPa·s and 57.59 ± 1.2 mPa·s
298.15 K, 600 kPa	59.35 ± 1.3 mPa·s
298.15 K, 25800 kPa	103.4 ± 3.1 mPa·s
298.15 K, 50000 kPa	167.4 ± 7.1 mPa·s
298.15 K, 50900 kPa	174.2 ± 7.6 mPa·s
298.15 K, 76300 kPa	287.8 ± 17 mPa·s
298.15 K, 100500 kPa	455.2 ± 34 mPa·s
298.15 K, 126600 kPa	730.7 ± 66 mPa·s
298.15 K, 150400 kPa	1103 ± 120 mPa·s
298.15 K, 174300 kPa	1631 ± 190 mPa·s
298.15 K, 199800 kPa	2527 ± 340 mPa·s
303.15 K, 100 kPa	44.29 ± 0.96 mPa·s and 44.2 ± 0.96 mPa·s and 43.49 ± 0.94 mPa·s
310.93 K, 100 kPa	28.88 ± 0.63 mPa·s [middle of 4 runs]
310.93 K, 47400 kPa	73.56 ± 1.8 mPa·s
310.93 K, 75300 kPa	120.3 ± 4.1 mPa·s
310.93 K, 99500 kPa	185.1 ± 8.4 mPa·s
310.93 K, 148600 kPa	413.1 ± 30 mPa·s
310.93 K, 176000 kPa	617.9 ± 52 mPa·s
310.93 K, 201800 kPa	912.7 ± 90 mPa·s
310.93 K, 223800 kPa	1259 ± 140 mPa·s
310.93 K, 247800 kPa	1794 ± 220 mPa·s
310.93 K, 250800 kPa	1819 ± 220 mPa·s
310.93 K, 274000 kPa	2555 ± 340 mPa·s
313.15 K, 100 kPa	26.6 ± 0.58 mPa·s and 26.58 ± 0.58 mPa·s
323.15 K, 100 kPa	17.17 ± 0.37 mPa·s and 17.01 ± 0.37 mPa·s and 17.1 ± 0.37 mPa·s
323.15 K, 700 kPa	17.26 ± 0.37 mPa·s
323.15 K, 10600 kPa	20.76 ± 0.45 mPa·s
323.15 K, 25700 kPa	27.26 ± 0.59 mPa·s
323.15 K, 50700 kPa	42.19 ± 0.92 mPa·s
323.15 K, 75600 kPa	63.74 ± 1.4 mPa·s
323.15 K, 100600 kPa	94.67 ± 2.7 mPa·s
323.15 K, 125600 kPa	138.7 ± 5.2 mPa·s
323.15 K, 150600 kPa	200.2 ± 9.5 mPa·s
323.15 K, 175600 kPa	286.3 ± 17 mPa·s
323.15 K, 200300 kPa	403.4 ± 28 mPa·s
323.15 K, 223100 kPa	539 ± 43 mPa·s
323.15 K, 252300 kPa	794.8 ± 74 mPa·s
323.15 K, 276700 kPa	1055.1 ± 110 mPa·s
323.15 K, 295400 kPa	1355.1 ± 150 mPa·s
323.15 K, 323700 kPa	1952.3 ± 240 mPa·s
333.15 K, 100 kPa	11.73 ± 0.25 mPa·s and 11.71 ± 0.25 mPa·s
343.15 K, 100 kPa	8.499 ± 0.18 mPa·s and 8.51 ± 0.18 mPa·s
348.15 K, 100 kPa	7.416 ± 0.16 mPa·s and 7.422 ± 0.16 mPa·s
348.15 K, 50800 kPa	15.52 ± 0.34 mPa·s
348.15 K, 54100 kPa	16.45 ± 0.36 mPa·s
348.15 K, 75900 kPa	22.09 ± 0.48 mPa·s
348.15 K, 100800 kPa	30.91 ± 0.67 mPa·s
348.15 K, 103500 kPa	32.17 ± 0.7 mPa·s
348.15 K, 125800 kPa	42.61 ± 0.92 mPa·s
348.15 K, 150800 kPa	58.12 ± 1.2 mPa·s
348.15 K, 175700 kPa	78.72 ± 1.9 mPa·s
348.15 K, 200700 kPa	105.6 ± 3.3 mPa·s
348.15 K, 225500 kPa	140.4 ± 5.3 mPa·s
348.15 K, 250300 kPa	185.6 ± 8.4 mPa·s
348.15 K, 275000 kPa	243.8 ± 13 mPa·s
348.15 K, 299100 kPa	316.7 ± 20 mPa·s
348.15 K, 324100 kPa	412.7 ± 29 mPa·s
348.15 K, 348100 kPa	529.4 ± 42 mPa·s
348.15 K, 371000 kPa	669 ± 59 mPa·s

Conditions	mass density [kg/m3]
273.15 K	998.82 ± 0.14
278.15 K	995.01 ± 0.15
283.15 K	991.26 ± 0.15
293.15 K	983.87 ± 0.16
298.15 K	980.15 ± 0.16
303.15 K	976.42 ± 0.16
313.15 K	968.98 ± 0.17
323.15 K	961.53 ± 0.17
333.15 K	954.11 ± 0.18
343.15 K	946.68 ± 0.19
353.15 K	939.27 ± 0.19
363.15 K	931.85 ± 0.2
